Results published in article PMC10004634 (PLOS ONE, 2023).

Assays:
Assay in all cases: biochemical
Design in all cases: KINOMEscan scanMAX competition binding, DNA-tagged kinases, qPCR read-out, percent control at 300 nM
[1] = target: T1, ASK1 (Homo sapiens, UniProt Q99683); conditions: read-out: Percent control / Acalabrutinib
T1 construct: gene MAP3K5

[2] = target: T2, CDC2L2 (Homo sapiens, UniProt Q9UQ88); conditions: read-out: Percent control / Acalabrutinib
T2 construct: gene CDK11A

[3] = target: EIF2AK1 (Homo sapiens, UniProt Q9BQI3); conditions: read-out: Percent control / Acalabrutinib
[4] = target: T3, JNK3 (Homo sapiens, UniProt P53779); conditions: read-out: Percent control / Acalabrutinib
T3 construct: gene MAPK10
T3 sequence (P53779 whole entry): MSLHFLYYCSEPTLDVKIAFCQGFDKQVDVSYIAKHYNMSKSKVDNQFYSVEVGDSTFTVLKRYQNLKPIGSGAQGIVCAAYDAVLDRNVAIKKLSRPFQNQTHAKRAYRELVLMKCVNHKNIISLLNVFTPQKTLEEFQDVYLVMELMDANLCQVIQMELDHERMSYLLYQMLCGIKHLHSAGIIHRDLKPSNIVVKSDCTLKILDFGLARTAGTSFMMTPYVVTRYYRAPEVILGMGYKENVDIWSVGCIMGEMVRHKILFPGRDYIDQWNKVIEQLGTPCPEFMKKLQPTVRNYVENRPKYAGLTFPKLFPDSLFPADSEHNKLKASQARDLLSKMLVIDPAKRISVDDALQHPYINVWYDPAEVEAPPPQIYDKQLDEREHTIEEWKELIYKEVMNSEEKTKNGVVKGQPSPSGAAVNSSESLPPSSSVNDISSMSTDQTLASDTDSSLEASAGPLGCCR

[5] = target: NEK5 (Homo sapiens, UniProt Q6P3R8); conditions: read-out: Percent control / Acalabrutinib
[6] = target: PIK3CG (Homo sapiens, UniProt P48736); conditions: read-out: Percent control / Acalabrutinib
Chain of PIK3CG (P48736 whole entry): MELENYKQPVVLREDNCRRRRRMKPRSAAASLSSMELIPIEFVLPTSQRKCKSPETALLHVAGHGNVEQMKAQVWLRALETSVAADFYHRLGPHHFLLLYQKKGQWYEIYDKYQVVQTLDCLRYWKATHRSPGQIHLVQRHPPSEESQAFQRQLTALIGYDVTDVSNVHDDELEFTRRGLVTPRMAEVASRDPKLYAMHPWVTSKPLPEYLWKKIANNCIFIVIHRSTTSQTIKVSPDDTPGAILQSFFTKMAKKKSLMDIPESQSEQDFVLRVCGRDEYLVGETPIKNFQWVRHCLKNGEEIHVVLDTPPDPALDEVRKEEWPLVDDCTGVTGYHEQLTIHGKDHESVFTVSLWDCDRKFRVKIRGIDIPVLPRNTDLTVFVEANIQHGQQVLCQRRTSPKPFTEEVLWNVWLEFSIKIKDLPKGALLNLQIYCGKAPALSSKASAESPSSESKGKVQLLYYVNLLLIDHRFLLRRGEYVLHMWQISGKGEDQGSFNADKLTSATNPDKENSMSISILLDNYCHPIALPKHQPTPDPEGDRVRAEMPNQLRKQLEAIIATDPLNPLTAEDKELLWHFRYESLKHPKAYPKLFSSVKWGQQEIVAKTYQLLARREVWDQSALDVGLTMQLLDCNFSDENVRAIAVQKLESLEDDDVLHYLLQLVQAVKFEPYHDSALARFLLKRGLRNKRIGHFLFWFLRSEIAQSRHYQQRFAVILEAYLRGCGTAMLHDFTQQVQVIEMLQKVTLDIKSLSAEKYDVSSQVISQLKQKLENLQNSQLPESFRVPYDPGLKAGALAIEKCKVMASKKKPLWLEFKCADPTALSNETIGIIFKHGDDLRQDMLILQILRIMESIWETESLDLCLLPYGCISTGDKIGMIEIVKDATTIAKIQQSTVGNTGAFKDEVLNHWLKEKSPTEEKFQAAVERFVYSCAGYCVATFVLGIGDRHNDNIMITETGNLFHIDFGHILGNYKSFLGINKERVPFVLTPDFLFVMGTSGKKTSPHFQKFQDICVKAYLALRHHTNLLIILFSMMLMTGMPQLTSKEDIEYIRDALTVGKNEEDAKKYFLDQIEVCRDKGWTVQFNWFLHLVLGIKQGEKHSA

[7] = target: TAOK2 (Homo sapiens, UniProt Q9UL54); conditions: read-out: Percent control / Acalabrutinib
Chain of TAOK2 (Q9UL54 whole entry): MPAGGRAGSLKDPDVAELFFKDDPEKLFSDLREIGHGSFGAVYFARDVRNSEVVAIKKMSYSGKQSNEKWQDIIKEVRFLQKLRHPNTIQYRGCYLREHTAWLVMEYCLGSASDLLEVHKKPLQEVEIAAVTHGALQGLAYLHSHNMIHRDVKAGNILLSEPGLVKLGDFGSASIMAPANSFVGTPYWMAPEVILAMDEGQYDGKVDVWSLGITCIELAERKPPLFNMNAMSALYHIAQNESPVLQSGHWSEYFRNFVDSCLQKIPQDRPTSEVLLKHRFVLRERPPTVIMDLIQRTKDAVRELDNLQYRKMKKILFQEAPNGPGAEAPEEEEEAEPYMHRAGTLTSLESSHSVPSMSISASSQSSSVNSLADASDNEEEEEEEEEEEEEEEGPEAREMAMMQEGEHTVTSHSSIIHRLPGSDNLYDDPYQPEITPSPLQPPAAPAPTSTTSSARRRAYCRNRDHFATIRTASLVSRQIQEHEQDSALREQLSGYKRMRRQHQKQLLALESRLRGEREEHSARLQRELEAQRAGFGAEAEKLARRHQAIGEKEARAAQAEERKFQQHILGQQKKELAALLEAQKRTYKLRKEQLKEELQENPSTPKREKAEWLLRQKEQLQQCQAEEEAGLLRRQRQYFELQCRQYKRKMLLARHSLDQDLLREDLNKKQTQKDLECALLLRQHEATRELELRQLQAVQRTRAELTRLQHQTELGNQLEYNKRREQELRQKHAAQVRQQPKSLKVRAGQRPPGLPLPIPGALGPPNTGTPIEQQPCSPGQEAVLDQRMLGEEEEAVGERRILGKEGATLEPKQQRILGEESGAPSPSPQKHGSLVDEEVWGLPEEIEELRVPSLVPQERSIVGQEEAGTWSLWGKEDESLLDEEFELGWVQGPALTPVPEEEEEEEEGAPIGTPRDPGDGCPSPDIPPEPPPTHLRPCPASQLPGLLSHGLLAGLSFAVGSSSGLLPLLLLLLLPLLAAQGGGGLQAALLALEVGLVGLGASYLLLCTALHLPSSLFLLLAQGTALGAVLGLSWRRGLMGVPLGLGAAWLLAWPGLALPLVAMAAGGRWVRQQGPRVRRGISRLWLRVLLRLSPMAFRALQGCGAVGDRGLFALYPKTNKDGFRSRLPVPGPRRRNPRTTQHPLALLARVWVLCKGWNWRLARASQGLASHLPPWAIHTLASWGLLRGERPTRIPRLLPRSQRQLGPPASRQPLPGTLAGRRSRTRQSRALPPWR

[8] = target: EGFR(G719C) (Homo sapiens, UniProt P00533, G719C); conditions: read-out: Percent control / Tirabrutinib
[9] = target: EGFR(L861Q) (Homo sapiens, UniProt P00533, L861Q); conditions: read-out: Percent control / Tirabrutinib
[10] = target: MARK1 (Homo sapiens, UniProt Q9P0L2); conditions: read-out: Percent control / Tirabrutinib
[11] = target: PRKG1 (Homo sapiens, UniProt Q13976); conditions: read-out: Percent control / Tirabrutinib
[12] = target: TLK2 (Homo sapiens, UniProt Q86UE8); conditions: read-out: Percent control / Tirabrutinib
[13] = target: T4, CDC2L5 (Homo sapiens, UniProt Q14004); conditions: read-out: Percent control / Zanubrutinib
T4 construct: gene CDK13

[14] = target: T5, CDK4-cyclinD1 (Homo sapiens, UniProt P11802); conditions: read-out: Percent control / Zanubrutinib
T5 construct: cyclinD1
T5 sequence (P11802 whole entry): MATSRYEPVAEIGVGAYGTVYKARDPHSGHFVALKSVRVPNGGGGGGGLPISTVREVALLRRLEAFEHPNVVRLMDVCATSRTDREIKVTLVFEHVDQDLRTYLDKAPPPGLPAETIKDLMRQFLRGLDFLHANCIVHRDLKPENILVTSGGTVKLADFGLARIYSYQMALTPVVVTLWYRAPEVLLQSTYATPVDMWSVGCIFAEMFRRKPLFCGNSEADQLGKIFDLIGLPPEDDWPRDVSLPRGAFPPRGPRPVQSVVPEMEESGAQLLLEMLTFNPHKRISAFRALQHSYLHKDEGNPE
T5 sequence (P24385 whole entry partner): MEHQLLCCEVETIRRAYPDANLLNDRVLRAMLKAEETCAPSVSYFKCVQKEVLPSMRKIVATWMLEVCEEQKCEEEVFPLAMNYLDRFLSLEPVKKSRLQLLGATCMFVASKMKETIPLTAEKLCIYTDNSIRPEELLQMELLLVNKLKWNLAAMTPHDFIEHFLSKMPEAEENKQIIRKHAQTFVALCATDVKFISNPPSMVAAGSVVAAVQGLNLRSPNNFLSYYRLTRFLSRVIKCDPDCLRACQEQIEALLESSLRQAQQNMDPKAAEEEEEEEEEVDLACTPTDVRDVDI

[15] = target: T6, IKK-beta (Homo sapiens, UniProt O14920); conditions: read-out: Percent control / Zanubrutinib
T6 construct: gene IKBKB

[16] = target: T7, MEK6 (Homo sapiens, UniProt P52564); conditions: read-out: Percent control / Zanubrutinib
T7 construct: gene MAP2K6

[17] = target: T8, MST1 (Homo sapiens, UniProt Q13043); conditions: read-out: Percent control / Zanubrutinib
T8 construct: gene STK4
T8 sequence (Q13043 whole entry): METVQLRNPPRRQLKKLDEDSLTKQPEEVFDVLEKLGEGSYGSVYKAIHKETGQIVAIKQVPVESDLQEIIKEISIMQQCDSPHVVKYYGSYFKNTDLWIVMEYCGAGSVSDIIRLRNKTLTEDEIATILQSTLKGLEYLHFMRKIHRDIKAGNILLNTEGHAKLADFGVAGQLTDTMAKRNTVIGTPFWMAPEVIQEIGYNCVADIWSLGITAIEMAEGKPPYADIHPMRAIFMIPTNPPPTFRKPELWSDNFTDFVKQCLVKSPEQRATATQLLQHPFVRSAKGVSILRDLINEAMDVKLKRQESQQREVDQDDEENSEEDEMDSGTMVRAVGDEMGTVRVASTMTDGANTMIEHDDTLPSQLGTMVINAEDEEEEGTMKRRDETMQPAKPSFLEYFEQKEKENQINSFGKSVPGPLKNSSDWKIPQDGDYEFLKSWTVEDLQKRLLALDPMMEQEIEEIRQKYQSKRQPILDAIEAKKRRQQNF

[18] = target: PAK2 (Homo sapiens, UniProt Q13177); conditions: read-out: Percent control / Zanubrutinib
Chain of PAK2 (Q13177 whole entry): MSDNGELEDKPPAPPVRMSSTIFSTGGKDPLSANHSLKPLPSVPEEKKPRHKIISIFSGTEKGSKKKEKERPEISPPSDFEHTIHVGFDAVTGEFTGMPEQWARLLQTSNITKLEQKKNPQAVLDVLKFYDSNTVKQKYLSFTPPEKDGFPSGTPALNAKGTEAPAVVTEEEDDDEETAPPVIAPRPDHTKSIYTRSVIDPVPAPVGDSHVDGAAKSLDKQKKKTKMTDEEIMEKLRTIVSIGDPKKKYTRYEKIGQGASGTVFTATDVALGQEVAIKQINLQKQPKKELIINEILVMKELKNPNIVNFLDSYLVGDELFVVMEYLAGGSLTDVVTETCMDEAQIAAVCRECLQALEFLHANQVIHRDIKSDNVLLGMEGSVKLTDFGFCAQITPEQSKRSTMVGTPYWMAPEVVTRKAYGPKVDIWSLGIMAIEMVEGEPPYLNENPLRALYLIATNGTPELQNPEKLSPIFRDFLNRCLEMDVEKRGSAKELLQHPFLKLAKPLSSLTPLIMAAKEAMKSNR

[19] = target: T9, PCTK1 (Homo sapiens, UniProt Q00536); conditions: read-out: Percent control / Zanubrutinib
T9 construct: gene CDK16
T9 sequence (Q00536 whole entry): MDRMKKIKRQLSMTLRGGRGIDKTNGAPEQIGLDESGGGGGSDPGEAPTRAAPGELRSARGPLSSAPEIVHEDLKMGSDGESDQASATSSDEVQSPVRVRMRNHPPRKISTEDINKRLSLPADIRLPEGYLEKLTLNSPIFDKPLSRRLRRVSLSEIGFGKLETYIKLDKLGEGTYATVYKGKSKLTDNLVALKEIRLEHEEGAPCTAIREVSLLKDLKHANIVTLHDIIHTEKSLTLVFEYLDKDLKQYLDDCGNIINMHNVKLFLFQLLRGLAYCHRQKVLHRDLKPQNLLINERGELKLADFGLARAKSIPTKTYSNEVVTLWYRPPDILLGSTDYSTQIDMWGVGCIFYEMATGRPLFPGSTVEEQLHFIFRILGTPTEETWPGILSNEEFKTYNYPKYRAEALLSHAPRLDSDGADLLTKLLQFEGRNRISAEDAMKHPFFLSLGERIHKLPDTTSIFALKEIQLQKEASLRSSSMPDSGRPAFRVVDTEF

[20] = target: PIK3CB (Homo sapiens, UniProt P42338); conditions: read-out: Percent control / Zanubrutinib
[21] = target: TGFBR2 (Homo sapiens, UniProt P37173); conditions: read-out: Percent control / Zanubrutinib
[22] = target: ULK2 (Homo sapiens, UniProt Q8IYT8); conditions: read-out: Percent control / Zanubrutinib
[23] = target: VRK2 (Homo sapiens, UniProt Q86Y07); conditions: read-out: Percent control / Zanubrutinib

In the case of `CC#CC(=O)N1CCC[C@H]1c1nc(-c2ccc(C(=O)Nc3ccccn3)cc2)c2c(N)nccn12` [Acalabrutinib], the remaining binding at 0.3 µM [1] is reported as 93%, the remaining binding at 0.3 µM [2] is reported as 82% and the remaining binding at 0.3 µM [3] is reported as 85%. The remaining binding at 0.3 µM [4] was 94%, the remaining binding at 0.3 µM [5] was 96% and the remaining binding at 0.3 µM [6] was 99%. For the same compound, the remaining binding at 0.3 µM [7] was 93%.
`CC#CC(=O)N1CC[C@@H](n2c(=O)n(-c3ccc(Oc4ccccc4)cc3)c3c(N)ncnc32)C1` [Tirabrutinib] was tested, and the remaining binding at 0.3 µM [8] was 54%, the remaining binding at 0.3 µM [9] was 86% and the remaining binding at 0.3 µM [10] was 88%. For the same compound, the remaining binding at 0.3 µM [11] was 90% and the remaining binding at 0.3 µM [12] was 90%.
`C=CC(=O)N1CCC([C@@H]2CCNc3c(C(N)=O)c(-c4ccc(Oc5ccccc5)cc4)nn32)CC1` [Zanubrutinib] gave a remaining binding at 0.3 µM [13] of 99%, a remaining binding at 0.3 µM [14] of 80% and a remaining binding at 0.3 µM [15] of 100%. The remaining binding at 0.3 µM [16] was 75%, the remaining binding at 0.3 µM [17] was 90% and the remaining binding at 0.3 µM [18] was 83%. It also gave a remaining binding at 0.3 µM [19] of 100%, a remaining binding at 0.3 µM [20] of 98% and a remaining binding at 0.3 µM [21] of 90%. The remaining binding at 0.3 µM [22] was 99% and the remaining binding at 0.3 µM [23] was 97%.
